Measurements reported in ChEMBL document CHEMBL1134234, “NO-independent stimulators of soluble guanylate cyclase” (Bioorg Med Chem Lett, 2001).

Species: Oryctolagus cuniculus
Assay: (§1) Ability to inhibit maximum constriction of phenylephrine-treated precontracted (3x10 -8 g/mL) rabbit aortic rings
Format: functional, Aorta
Conditions: not given

Compound | Inhibition [%]
OCc1ccc(-c2nn(Cc3ccccc3F)c3cccnc23)o1 | 27

Species: Oryctolagus cuniculus
Assay: as §1
Format: functional
Conditions: Aorta

Compound | IC50 [µM]
N#Cc1cccc(Cn2nc(-c3ccc(CO)o3)c3ccccc32)c1 | 26
OCc1ccc(-c2nn(Cc3cncnc3)c3ccccc23)o1 | 3.2
CCCCCc1cnc(-c2nn(Cc3ccccc3F)c3ncccc23)nc1N | 200
OCc1ccc(-c2nn(Cc3ccccc3F)c3ccccc23)o1 | 4.9
Cc1coc(-c2nn(Cc3ccccc3F)c3ncccc23)n1 | 1.2
CCc1c[nH]c(-c2nn(Cc3ccccc3F)c3ncccc23)n1 | 0.6
OCc1ccc(-c2nn(Cc3ccc(Cl)s3)c3ccccc23)o1 | 7.2
COc1cnc(-c2nn(Cc3ccccc3F)c3ncccc23)nc1N | 343
Fc1ccccc1Cn1nc(C2=NCCN2)c2cccnc21 | 3.2
CCc1cnc(-c2nn(Cc3ccccc3F)c3ncccc23)nc1N | 272
CC(C)S(=O)(=O)c1cnc(-c2nn(Cc3ccccc3F)c3ncccc23)nc1N | 517
OCc1ccc(-c2nn(Cc3ccccc3)c3ccccc23)o1 | 10
OCc1ccc(-c2nn(Cc3ccccc3F)c3cnccc23)o1 | 6.93
Nc1nc(-c2nn(Cc3ccccc3F)c3ncccc23)ncc1C1CCCCC1 | 561
CC(C#N)CCCCCc1cnc(-c2nn(Cc3ccccc3F)c3ncccc23)nc1N (centres undefined) | 1290
OCc1ccc(-c2nn(Cc3ccc(F)cc3)c3ccccc23)o1 | 19
CCCc1cnc(-c2nn(Cc3ccccc3F)c3ncccc23)nc1N | 252
Nc1nc(-c2nn(Cc3ccccc3F)c3ncccc23)ncc1CC(F)(F)F | 508
OCc1ccc(-c2nn(Cc3ccccc3F)c3ncncc23)o1 | 9.4
Nc1nc(-c2nn(Cc3ccccc3F)c3ncccc23)ncc1C1=CCCC1 | 0.836
Nc1nc(-c2nn(Cc3ccccc3F)c3ncccc23)nc(N)c1C1CC1 | 233
Fc1ccccc1Cn1nc(-c2ccco2)c2cccnc21 | 9.3
OCc1ccc(-c2nn(Cc3c(F)cccc3F)c3ccccc23)o1 | 15
Fc1ccccc1Cn1nc(-c2ncccn2)c2cccnc21 | 1.25

Further molecules by falling IC50, results first:

IC50 [µM] | Compound
675 | Cc1cnc(-c2nn(Cc3ccccc3F)c3ncccc23)nc1N
650 | Nc1nc(-c2nn(Cc3ccccc3F)c3ncccc23)ncc1N1CCSCC1
633 | Nc1nc(-c2nn(Cc3ccccc3F)c3ncccc23)ncc1C1CCC1
588 | N#CCCCCCc1cnc(-c2nn(Cc3ccccc3F)c3ncccc23)nc1N
536 | Cc1cc(N)nc(-c2nn(Cc3ccccc3F)c3ncccc23)n1
478 | Nc1nc(-c2nn(Cc3ccccc3F)c3ncccc23)ncc1F
414 | CCOP(=O)(OCC)c1cnc(-c2nn(Cc3ccccc3F)c3ncccc23)nc1N
412 | N#CCCc1cnc(-c2nn(Cc3ccccc3F)c3ncccc23)nc1N
391 | N#Cc1cnc(-c2nn(Cc3ccccc3F)c3ncccc23)nc1N
378 | CCCS(=O)(=O)c1cnc(-c2nn(Cc3ccccc3F)c3ncccc23)nc1N
306 | Nc1nc(-c2nn(Cc3ccccc3F)c3ncccc23)ncc1N1CCOCC1
304 | Nc1nc(-c2nn(Cc3ccccc3F)c3ncccc23)ncc1C1CC1
261 | CS(=O)(=O)c1cnc(-c2nn(Cc3ccccc3F)c3ncccc23)nc1N
243 | CSc1cnc(-c2nn(Cc3ccccc3F)c3ncccc23)nc1N
218 | CCCCc1cnc(-c2nn(Cc3ccccc3F)c3ncccc23)nc1N
207 | CC(C)c1cnc(-c2nn(Cc3ccccc3F)c3ncccc23)nc1N
20.4 | OCc1ccc(-c2nn(Cc3ccccc3F)c3cccnc23)o1

IC50 [µM] | Compound
16 | OCc1ccc(-c2nn(Cc3ccccn3)c3ccccc23)o1
10 | OCc1ccc(-c2nn(Cc3cccc(F)c3)c3ccccc23)o1
9.8 | OCc1ccc(-c2nn(Cc3ccccc3F)c3ccncc23)o1
9.6 | OCc1ccc(-c2nn(Cc3cccnc3)c3ccccc23)o1
8.7 | N#Cc1ccccc1Cn1nc(-c2ccc(CO)o2)c2ccccc21
8.6 | Fc1ccccc1Cn1nc(-c2nn[nH]n2)c2cccnc21
8 | NS(=O)(=O)c1ccc(-c2nn(Cc3ccccc3F)c3ncccc23)o1
4.8 | Fc1ccccc1Cn1nc(-c2ccccn2)c2cccnc21
1.8 | Fc1ccccc1Cn1nc(-c2cc[nH]n2)c2cccnc21
1.7 | OCc1ccc(-c2nn(Cc3ccccc3F)c3ncccc23)o1
1.5 | Cc1oc(-c2nn(Cc3ccccc3F)c3ncccc23)nc1CO
1.4 | NCc1cnc(-c2nn(Cc3ccccc3F)c3ncccc23)nc1N
1.3 | OCc1ccnc(-c2nn(Cc3ccccc3F)c3ncccc23)n1
1.04 | CCCCCCc1cnc(-c2nn(Cc3ccccc3F)c3ncccc23)nc1N
0.904 | Nc1nc(-c2nn(Cc3ccccc3F)c3ncccc23)ncc1C1CCCC1
0.9 | Cc1nc(-c2nn(Cc3ccccc3F)c3ncccc23)oc1CO
0.709 | CC(C)(C)c1cnc(-c2nn(Cc3ccccc3F)c3ncccc23)nc1N
